Measurements reported in patent US9045490B2, “Use of parthenolide derivatives as antileukemic and cytotoxic agents” (University of Kentucky, priority 2003, dated 2015).

How the values were obtained:
[1] = Preliminary toxicity study in mice; assay type: in vivo; settings: oral 40 mg/kg daily, three weeks, mice gained weight and survived
Experimental: Preliminary in vivo work was conducted to determine the bioavailability and toxicity of this agent in mice.

[2] = system: breast cancer cell line mdl-231; assay: Clonogenic assay; assay type: cell-based; settings: mdl-231, 2 μm concentration (parthenolide: similar dosage ranges)
[3] = system: NF-κB DNA binding; assay: Electrophoretic mobility gel shift assay (EMSA); assay type: cell-based; settings: three hours
Experimental: Each cancer cell line in exponential growth phase was treated with solvent control or various concentrations of parthenolide derivatives dissolved in 100% ethanol for 3 hours prior to harvesting. Cells were harvested and whole cell extracts were prepared as described previously (Nakshatri et al., Mol Cell Biol, 17: 3629-3639, 1997; Sweeney et al., Clin Cancer Res, 10: 5501-5507, 2004). Extracts were incubated with a radiolabelled NFκB probe for 30 minutes at room temperature. The oligonucleotide probe binds to the NFκB DNA binding site in the promoter region of the immunoglobulin gene. Electrophoresis and autoradioragraphy were performed as described previously (Nakshatri et al., 1997) using NFκB and SP-1 probes (Promega, Madison, Wis.). The specificity of parthenolide and derivative inhibition of NFκB DNA binding was verified by the use of the SP-1 probe as a control. Identification of the NFκB subunits binding to DNA and inhibited by DMAPT were identified by gel supershift. Constitutive NF-κB DNA binding activity was determined in the lung cancer cell lines A-549, H-23, H-522, and H-460. All four non-small lung cancer cells were treated with increasing concentrations of DMAPT for three hours, and NF-κB DNA binding was measured by electrophoretic mobility shift assay (EMSA) as described. NF-κB DNA binding activity was highest in A-549 cells, followed by H-23, H-522 and H-460 cells.
Cancer cell lines HT-1376 and UMUC-3 were treated with increasing concentrations of DMAPT for three hours. Whole cell extracts were prepared as described and DNA binding by NF-κB was analyzed by EMSA with NF-κB and OCT-1 (internal control) probes.
The hormone refractory prostate cancer cell line, CWR22Rv1 was treated with increasing concentrations of DMAPT for three hours. Whole cell extracts were prepared as described and DNA binding by NF-κB was analyzed by EMSA with NF-κB and SP-1 (internal control) probes.

C/C1=C\CC[C@@]2(C)O[C@@H]2[C@H]2OC(=O)[C@H](CN(C)C)[C@@H]2CC1 [DMAPT, 11S,11,13-Dihydro,13-dimethylaminoparthenolide]
toxicity on daily oral treatment [1]: no overt toxicities | inhibition of proliferation [2]: almost complete inhibition | NF-κB DNA binding ([3]; CWR22Rv1, 10 μM): substantial decreases | NF-κB DNA binding ([3]; HT-1376 and UMUC-3 cell lines, increasing concentrations): decreased NF-κB DNA binding in a dose-dependent manner | NF-κB DNA binding activity ([3]; lung cancer cell lines A-549, H-23, H-522, H-460, between 2 and 10 micromolar): substantially decreased
